In ChEMBL document CHEMBL3991601, “The target landscape of clinical kinase drugs” (Science, 2017):
Activity calls are given as the source filed them.

How the values were obtained:
[1] = biological target: T1, ATP-dependent RNA helicase DHX30 (Homo sapiens, UniProt Q7L2E3)
T1 sequence (Q7L2E3 whole entry): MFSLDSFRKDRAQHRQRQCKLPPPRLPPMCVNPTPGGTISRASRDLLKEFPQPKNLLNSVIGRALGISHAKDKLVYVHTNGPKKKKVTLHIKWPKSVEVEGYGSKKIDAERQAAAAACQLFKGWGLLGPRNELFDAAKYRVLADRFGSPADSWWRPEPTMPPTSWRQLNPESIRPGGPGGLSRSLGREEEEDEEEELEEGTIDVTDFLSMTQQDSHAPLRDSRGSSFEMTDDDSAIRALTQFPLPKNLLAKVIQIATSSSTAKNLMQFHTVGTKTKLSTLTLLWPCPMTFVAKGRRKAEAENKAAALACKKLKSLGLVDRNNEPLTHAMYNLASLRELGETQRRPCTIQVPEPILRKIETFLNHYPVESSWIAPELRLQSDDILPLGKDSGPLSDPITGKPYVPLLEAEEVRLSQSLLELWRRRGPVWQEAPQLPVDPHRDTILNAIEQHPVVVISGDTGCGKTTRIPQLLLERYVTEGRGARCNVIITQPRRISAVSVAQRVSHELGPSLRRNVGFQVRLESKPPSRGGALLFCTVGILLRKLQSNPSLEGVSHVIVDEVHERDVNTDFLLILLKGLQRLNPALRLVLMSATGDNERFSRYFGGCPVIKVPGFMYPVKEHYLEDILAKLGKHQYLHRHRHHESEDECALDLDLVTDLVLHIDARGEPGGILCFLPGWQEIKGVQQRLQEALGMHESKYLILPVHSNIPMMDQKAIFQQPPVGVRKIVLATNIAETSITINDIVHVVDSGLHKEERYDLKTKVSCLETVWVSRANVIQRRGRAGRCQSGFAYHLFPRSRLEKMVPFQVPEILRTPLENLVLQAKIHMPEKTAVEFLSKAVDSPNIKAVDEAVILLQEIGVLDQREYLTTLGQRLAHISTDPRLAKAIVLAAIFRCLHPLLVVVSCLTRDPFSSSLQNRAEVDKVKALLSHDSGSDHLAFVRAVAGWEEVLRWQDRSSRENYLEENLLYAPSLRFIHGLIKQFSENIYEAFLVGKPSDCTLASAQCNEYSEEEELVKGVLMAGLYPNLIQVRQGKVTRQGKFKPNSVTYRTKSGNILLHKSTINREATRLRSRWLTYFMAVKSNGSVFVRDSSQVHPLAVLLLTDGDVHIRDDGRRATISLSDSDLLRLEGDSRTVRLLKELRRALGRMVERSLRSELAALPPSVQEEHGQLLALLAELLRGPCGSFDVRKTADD

[2] = biological target: T2, Eukaryotic translation initiation factor 5B (Homo sapiens, UniProt O60841)
T2 sequence (O60841 whole entry): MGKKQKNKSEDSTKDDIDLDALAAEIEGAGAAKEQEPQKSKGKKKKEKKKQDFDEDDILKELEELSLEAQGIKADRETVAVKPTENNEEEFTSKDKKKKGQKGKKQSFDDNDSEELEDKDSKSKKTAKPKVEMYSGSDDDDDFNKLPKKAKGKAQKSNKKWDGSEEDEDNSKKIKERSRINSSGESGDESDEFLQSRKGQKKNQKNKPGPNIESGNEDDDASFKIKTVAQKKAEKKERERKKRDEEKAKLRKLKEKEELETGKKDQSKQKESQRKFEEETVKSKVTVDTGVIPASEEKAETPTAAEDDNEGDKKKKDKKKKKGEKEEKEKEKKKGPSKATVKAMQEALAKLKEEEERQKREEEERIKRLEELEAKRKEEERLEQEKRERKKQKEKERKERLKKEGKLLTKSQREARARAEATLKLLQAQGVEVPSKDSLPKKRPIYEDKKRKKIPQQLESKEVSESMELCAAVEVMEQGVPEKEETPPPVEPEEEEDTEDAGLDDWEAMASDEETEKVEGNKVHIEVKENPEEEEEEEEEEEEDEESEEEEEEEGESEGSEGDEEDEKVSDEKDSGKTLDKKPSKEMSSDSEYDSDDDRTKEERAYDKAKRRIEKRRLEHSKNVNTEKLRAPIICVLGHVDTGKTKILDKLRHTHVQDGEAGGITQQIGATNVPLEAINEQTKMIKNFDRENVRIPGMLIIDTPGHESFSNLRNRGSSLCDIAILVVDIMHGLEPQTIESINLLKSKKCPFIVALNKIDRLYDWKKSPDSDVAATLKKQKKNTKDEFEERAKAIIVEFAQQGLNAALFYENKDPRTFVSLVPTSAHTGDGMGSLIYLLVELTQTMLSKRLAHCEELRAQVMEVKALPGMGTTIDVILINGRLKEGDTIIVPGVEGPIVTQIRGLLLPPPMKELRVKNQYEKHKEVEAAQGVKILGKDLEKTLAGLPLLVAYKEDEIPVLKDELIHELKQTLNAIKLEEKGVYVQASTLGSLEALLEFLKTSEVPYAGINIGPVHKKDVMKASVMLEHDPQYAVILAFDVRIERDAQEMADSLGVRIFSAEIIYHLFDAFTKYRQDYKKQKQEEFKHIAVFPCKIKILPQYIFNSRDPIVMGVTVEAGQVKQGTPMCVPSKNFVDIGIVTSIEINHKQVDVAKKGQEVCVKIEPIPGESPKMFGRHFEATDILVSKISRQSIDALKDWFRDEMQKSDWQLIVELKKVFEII

[3] = biological target: High affinity nerve growth factor receptor (Homo sapiens, UniProt P04629)
Chain of High affinity nerve growth factor receptor (P04629 whole entry): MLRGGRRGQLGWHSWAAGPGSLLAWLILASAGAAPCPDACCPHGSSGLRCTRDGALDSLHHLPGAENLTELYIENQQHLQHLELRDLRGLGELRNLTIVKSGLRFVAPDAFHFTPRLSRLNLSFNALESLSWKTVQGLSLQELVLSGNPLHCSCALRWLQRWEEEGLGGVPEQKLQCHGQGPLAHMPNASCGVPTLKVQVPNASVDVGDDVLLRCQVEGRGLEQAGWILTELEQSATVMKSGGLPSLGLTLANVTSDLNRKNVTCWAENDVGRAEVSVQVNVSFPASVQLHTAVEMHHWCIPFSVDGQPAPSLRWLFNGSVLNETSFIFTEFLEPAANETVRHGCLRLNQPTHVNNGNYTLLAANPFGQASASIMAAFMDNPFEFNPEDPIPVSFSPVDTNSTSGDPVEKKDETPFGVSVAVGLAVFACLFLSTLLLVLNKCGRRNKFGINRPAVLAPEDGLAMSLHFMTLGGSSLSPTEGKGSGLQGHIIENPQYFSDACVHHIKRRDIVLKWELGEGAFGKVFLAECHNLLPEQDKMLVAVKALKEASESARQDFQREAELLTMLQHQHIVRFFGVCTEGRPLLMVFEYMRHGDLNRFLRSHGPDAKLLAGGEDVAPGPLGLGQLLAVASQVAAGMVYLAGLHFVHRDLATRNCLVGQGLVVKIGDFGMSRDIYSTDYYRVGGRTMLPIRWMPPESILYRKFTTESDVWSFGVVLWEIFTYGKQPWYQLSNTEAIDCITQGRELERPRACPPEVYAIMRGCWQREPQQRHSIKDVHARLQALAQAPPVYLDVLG

[4] = biological target: Serine/threonine-protein kinase PAK 6 (Homo sapiens, UniProt Q9NQU5)
Chain of Serine/threonine-protein kinase PAK 6 (Q9NQU5 whole entry): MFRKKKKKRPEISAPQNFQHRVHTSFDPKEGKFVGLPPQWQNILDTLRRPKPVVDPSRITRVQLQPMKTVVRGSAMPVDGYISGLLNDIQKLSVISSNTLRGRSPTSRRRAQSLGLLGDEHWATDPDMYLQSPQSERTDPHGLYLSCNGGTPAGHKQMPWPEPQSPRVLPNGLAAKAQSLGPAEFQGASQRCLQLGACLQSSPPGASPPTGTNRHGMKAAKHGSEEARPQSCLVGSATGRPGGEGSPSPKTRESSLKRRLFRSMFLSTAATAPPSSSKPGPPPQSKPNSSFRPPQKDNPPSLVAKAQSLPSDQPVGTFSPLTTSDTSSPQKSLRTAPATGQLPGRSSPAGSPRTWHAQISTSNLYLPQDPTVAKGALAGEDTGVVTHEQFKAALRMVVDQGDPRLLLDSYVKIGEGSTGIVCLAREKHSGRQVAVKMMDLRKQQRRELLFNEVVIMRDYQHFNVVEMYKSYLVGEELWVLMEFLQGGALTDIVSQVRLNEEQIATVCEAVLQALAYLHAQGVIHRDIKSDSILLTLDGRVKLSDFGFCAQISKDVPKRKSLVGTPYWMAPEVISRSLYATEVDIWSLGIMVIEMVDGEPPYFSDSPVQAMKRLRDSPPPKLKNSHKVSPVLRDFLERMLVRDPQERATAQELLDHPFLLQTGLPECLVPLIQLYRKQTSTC
Also: in the data inactive means no Kd found up to 30 µM.

Row | Kd [1] | Kd [2] | Kd [3] | SMILES | Kd [4]
1 | > 30 µM (inactive) | > 30 µM (inactive) |  | O=c1[nH]c([C@@H]2CCCN2)nc2c1oc1ccc(Cl)cc12 | 
2 |  | > 30 µM (inactive) | > 30 µM (inactive) | CCN1CCN(Cc2ccc(Nc3ncc(F)c(-c4cc(F)c5nc(C)n(C(C)C)c5c4)n3)nc2)CC1 [ABEMACICLIB] | 
3 | > 30 µM (inactive) |  |  | CN(C)C/C=C/C(=O)Nc1cc2c(Nc3ccc(F)c(Cl)c3)ncnc2cc1O[C@H]1CCOC1 [AFATINIB] | 
4 |  | > 30 µM (inactive) |  | COc1ccc2c(OCc3nnc4ccc(-c5ccccc5)nn34)ccnc2c1 [AMG-208] | 
5 | > 30 µM (inactive) | > 30 µM (inactive) | > 30 µM (inactive) | S=C(NCc1ccc2c(c1)OCO2)N1CCN(c2ncnc3c2oc2ccccc23)CC1 [AMUVATINIB] | 
6 |  | > 30 µM (inactive) |  | CCN(CCCOc1ccc2c(Nc3cc(CC(=O)Nc4cccc(F)c4)n[nH]3)ncnc2c1)CCOP(=O)(O)O [BARASERTIB] | > 30 µM (inactive)
7 |  | > 30 µM (inactive) | > 30 µM (inactive) | COc1ccc(-c2ccc3ncc4c(c3c2)n(-c2ccc(N3CCNCC3)c(C(F)(F)F)c2)c(=O)n4C)cn1 [BGT-226 FREE BASE] | > 30 µM (inactive)
8 |  | > 30 µM (inactive) |  | C[C@@]1(C(=O)Nc2ccc(F)nc2)CCCN1c1nc(Nc2cc(C3CC3)n[nH]2)c2cccn2n1 [BMS-754807] | 
9 | > 30 µM (inactive) | > 30 µM (inactive) |  | CCOc1ccn(-c2ccc(F)cc2)c(=O)c1C(=O)Nc1ccc(Oc2ccnc(N)c2Cl)c(F)c1 [BMS-777607] | 
10 | > 30 µM (inactive) | > 30 µM (inactive) |  | COc1cc2c(Oc3ccc4[nH]c(C)cc4c3F)ncnc2cc1OCCCN1CCCC1 [CEDIRANIB] | 
11 | > 30 µM (inactive) | > 30 µM (inactive) | > 30 µM (inactive) | COc1cc2ncnc(Nc3ccc(F)c(Cl)c3)c2cc1NC(=O)/C=C/CN1CCCCC1 [DACOMITINIB ANHYDROUS] | 
12 |  | > 30 µM (inactive) |  | Cn1c(=O)n(-c2ccc(C(C)(C)C#N)cc2)c2c3cc(-c4cnc5ccccc5c4)ccc3ncc21 [DACTOLISIB] | > 30 µM (inactive)
13 | > 30 µM (inactive) |  | > 30 µM (inactive) | CC[C@@](C)(Nc1ccnc(-c2c[nH]c3ncccc23)n1)C(=O)NCC(F)(F)F [DECERNOTINIB] | 
14 | > 30 µM (inactive) |  | > 30 µM (inactive) | COc1cc(Nc2ncc(F)c(Nc3ccc4c(n3)N(COP(=O)(O)O)C(=O)C(C)(C)O4)n2)cc(OC)c1OC [FOSTAMATINIB] | 
15 |  | > 30 µM (inactive) | > 30 µM (inactive) | O=S(=O)(c1cccc2c(O)nccc12)N1CCCNCC1 [HYDROXYFASUDIL] | 
16 | > 30 µM (inactive) | > 30 µM (inactive) | > 30 µM (inactive) | COc1cc2ncnc3c2cc1OCCCCCN(C)Cc1ccc(Br)cc1N3 [JNJ-26483327] | 
17 | > 30 µM (inactive) | > 30 µM (inactive) |  | CC1(C)CNc2cc(NC(=O)c3cccnc3NCc3ccncc3)ccc21 [MOTESANIB] | 
18 | > 30 µM (inactive) | > 30 µM (inactive) | > 30 µM (inactive) | COc1cccc2cc(-c3nc([C@H]4CC[C@H](C(=O)O)CC4)n4ncnc(N)c34)[nH]c12 [OSI-027] | 
19 | > 30 µM (inactive) |  | > 30 µM (inactive) | FC(F)(F)c1ccc(CNc2ccc(Cc3c[nH]c4ncc(Cl)cc34)cn2)cn1 [PEXIDARTINIB] | 
20 |  | > 30 µM (inactive) | > 30 µM (inactive) | C=CC(=O)Nc1cccc(Nc2nc(Nc3ccc(N4CCN(C(C)=O)CC4)cc3OC)ncc2C(F)(F)F)c1 [ROCILETINIB] | 
21 |  | > 30 µM (inactive) |  | Cn1cnc2c(F)c(Nc3ccc(Br)cc3Cl)c(C(=O)NOCCO)cc21 [SELUMETINIB] | 
22 |  |  | > 30 µM (inactive) | O=C(O)c1ccc2c(c1)nc(Nc1cccc(Cl)c1)c1ccncc12 [SILMITASERTIB] | 
23 |  |  |  | C=CCN(/C=C1/C(=O)O[C@H](COC)[C@@]2(C)C1=C(O)C(=O)C1=C2[C@H](OC(C)=O)C[C@]2(C)C(=O)CC[C@@H]12)CC=C [SONOLISIB] | > 30 µM (inactive)
24 | > 30 µM (inactive) |  | > 30 µM (inactive) | CC(C)(O)CC(=O)NCCn1ccc2ncnc(Nc3ccc(Oc4cccc(C(F)(F)F)c4)c(Cl)c3)c21 [TAK-285] | 
25 | > 30 µM (inactive) |  | > 30 µM (inactive) | Cc1cc(C(=O)Nc2cc(Oc3ccc4nc(NC(=O)C5CC5)cn4n3)ccc2C)n(C)n1 [TAK-593] | 
26 |  | > 30 µM (inactive) |  | COc1cc2c(N3CCN(C(=O)Nc4ccc(OC(C)C)cc4)CC3)ncnc2cc1OCCCN1CCCCC1 [TANDUTINIB] | 
27 |  | > 30 µM (inactive) | > 30 µM (inactive) | CNC(=O)c1cc(COc2nnc(Nc3ccc(Cl)cc3)c3ccoc23)ccn1 [TELATINIB] | > 30 µM (inactive)
28 | > 30 µM (inactive) |  | > 30 µM (inactive) | Cc1cc(-c2cc(OC(=O)c3ccccc3)ccc2Cl)cc2nnc(Nc3ccc(OCCN4CCCC4)cc3)nc12 [TG100-801] | 

Row | SMILES | Kd [1] | Kd [2] | Kd [3] | Kd [4]
29 | Cc1c(NC(=O)OC[C@@H]2COCCN2)cn2ncnc(Nc3ccc4c(cnn4Cc4cccc(F)c4)c3)c12 [AC-480] |  |  | > 30 µM (inactive) | > 30 µM (inactive)
30 | NC[C@@](O)(c1ccc(Cl)cc1)c1ccc(-c2cn[nH]c2)cc1 [AT-13148] |  | > 30 µM (inactive) |  | 
31 | O=S(=O)(c1cccc2cnccc12)N1CCCNCC1 [FASUDIL] | > 30 µM (inactive) | > 30 µM (inactive) |  | 
32 | CCc1nc(C(N)=O)c(Nc2ccc(N3CCC(N4CCN(C)CC4)CC3)c(OC)c2)nc1NC1CCOCC1 [GILTERITINIB] | > 30 µM (inactive) | > 30 µM (inactive) | > 30 µM (inactive) | 
33 | Cc1c(Cn2c(C)nc3c(C(=O)O)cc(N4CCOCC4)cc32)cccc1C(F)(F)F [GSK-2636771] |  |  | > 30 µM (inactive) | 
34 | N#CCNC(=O)c1ccc(-c2ccnc(Nc3ccc(N4CCOCC4)cc3)n2)cc1 [MOMELOTINIB] |  |  | > 30 µM (inactive) | 
35 | C=CC(=O)Nc1cc(Nc2nccc(-c3cn(C)c4ccccc34)n2)c(OC)cc1N(C)CCN(C)C [OSIMERTINIB] | > 30 µM (inactive) | > 30 µM (inactive) | > 30 µM (inactive) | 
36 | CN(c1ncccc1CNc1nc(Nc2ccc3c(c2)CC(=O)N3)ncc1C(F)(F)F)S(C)(=O)=O [PF-00562271] |  | > 30 µM (inactive) |  | > 30 µM (inactive)
37 | CC(C)CC(=O)Nc1[nH]nc2c1CN(C(=O)C1CCN(C)CC1)C2(C)C [PHA-793887] |  | > 30 µM (inactive) | > 30 µM (inactive) | 
38 | CN1CCN(c2nc(C3=C(c4c[nH]c5ccccc45)C(=O)NC3=O)c3ccccc3n2)CC1 [SOTRASTAURIN] |  | > 30 µM (inactive) | > 30 µM (inactive) | > 30 µM (inactive)
